Converted amounts (≈) assume the structure as drawn. Like-named read-outs stand apart in the source and are kept apart here.
How the values were obtained:
[1] = tested on: rice stem borers (Chilo suppressalis Walker); assay: Mortality test with rice stem borers by topical application method; format: in vivo; details: 24 h
Protocol: Mortality test with rice stem borers (Chilo suppressalis Walker) by topical application method
Using a microsyringe, 0.5 μl of the above solution was applied to the thoracic abdominal region of each final-instar larva of rice stem borer (Chilo suppressalis Walker). […] The test larvae were used in groups of 20 individuals each.

[2] = tested on: tobacco cutworms (Prodenia litura Fabricius); assay: Mortality test with tobacco cutworms by topical application method; format: in vivo; details: 24 h
Protocol: Mortality test with tobacco cutworms (Prodenia litura Fabricius) by topical application method
Using a microsyringe, 0.5 μl of the above solution was dripped onto the thoracic adbominal region of each of 3-instar tobacco cutworm (Prodenia litura Fabricius) larvae. […] The test larvae were used in groups of 20 individuals each.

[3] = tested on: two-spotted spider mites (Tetranychus urticae Koch); assay: Mortality test with two-spotted spider mites by spray application method; format: in vivo; details: 48 h, 200 ppm spray, two days, read-out: Percent decrease of population (%)
Protocol: Mortality test with two-spotted spider mites (Tetranychus urticae Koch) by spray application method
To a 5% aqueous solution of acetone was added dropwise a small amount of Tween-20 (polyethylene sorbitan monolaurate) as a surfactant. […] From 30 to 50 adult two-spotted spider mites (Tetranychus urticae Koch) were released on the leaves of kidney-bean plants in the dicotyledonous stage in a pot 9 cm in diameter, followed by a spray application of the above solution. The pot was kept in a constant-temperature chamber at 26° C. and two days later the mites were examined for deaths. The percent decrease of population was then calculated.

[4] = Fish toxicity test with killifish; format: in vivo, Orizias latipes; details: water, killifish, 25±1° C., read-out: TLm (48 hrs.)
Protocol: Fish toxicity test with killifish (Orizias latipes)
An acetone solution of one of the test compounds as mentioned in Table 8 was prepared by adding said test compound to 15 ml of acetone. To 10 liters of water was added a predetermined amount of the above acetone solution and the mixture was stirred thoroughly to prepare an aqueous solution containing the test compound in a predetermined concentration. This was used as a test water. After the each test water was moderately aerated, ten killifishes (Orizias latipes) with a body weight of about 0.25 g and a body length of about 2.5 cm were released into said each test water which was maintained at 25±1° C. After 48 hours, the test fish was examined for death. The TLm (median tolerance limit, ppm) was determined.

[5] = tested on: green rice leafhoppers (Nephotettix cincticeps Uhler); assay: Utility Example-2: spray on rice plants, green rice leafhoppers; format: in vivo; details: 7 ml/pot, 24 hours
Protocol: A 30% emulsifiable concentrate of each of the cis- and trans-isomers and a 50:50 mixture of the cis- and trans-isomers of Compound (1) and Compound (2) as prepared by the procedure described in Formulation Example-1 was diluted with water to a concentration of 80 ppm as active compound. Rice plants 4 weeks after sowing in pots (each pot 6 cm in diameter, 7 seedlings) were sprayed with the above solution at the rate of 7 ml/pot and, after drying in the air, each pot was covered with a wire-mesh cage. Then, 20 female adult green rice leafhoppers (Nephotettix cincticeps Uhler) were released into the cage. The caged pots were kept in a constant-temperature chamber at 25° C. […] In all groups, the mortality values were not less than 90%.

[6] = tested on: small brown planthoppers (Laodelphax striatellus Fallen); assay: Utility Example-3: spray on rice plants, small brown planthoppers; format: in vivo; details: 7 ml/pot, 24 hours
Protocol: A 30% emulsifiable concentrate of each of the cis- and trans-isomers and a 50:50 mixture of the cis- and trans-isomers of Compound (1) and of Compound (2) as prepared by the procedure described in Formulation Example-1 was diluted with water to a concentration of 80 ppm as active compound. Rice plants 4 weeks after sowing in pots (each pot 6 cm in diameter, 7 seedlings) were sprayed with the above diluted solution at the rate of 7 ml/pot and, after drying in the air, each pot was covered with a wire-mesh cage. Then, 30 adult small brown planthoppers (Laodelphax striatellus Fallen) were released into the cage. The pots were kept in a constant-temperature chamber at 25° C. […] In all groups, the mortality was not less than 90%.

[7] = tested on: green rice leafhoppers (Nephotettix cincticeps Uhler); assay: Utility Example-4: 0.2% dust on rice seedlings, green rice leafhoppers; format: in vivo; details: 5 kg per 10 ares, 24 hours, resistant to organophosphorus and carbamate pesticides
From the text: A 0.2% dust preparation of each of the cis- and trans-isomers and a 50:50 mixture of the cis- and trans-isomers of Compound (1) and of Compound (2) as prepared by the procedure described in Formulation Example-3 was applied to rice seedlings by means of a bell-jar duster at the rate of 5 kg per 10 ares. […] In all cases, the mortality was not less than 90%.

[8] = tested on: green rice leafhoppers (Nephotettix cincticeps); assay: Utility Example-6: 0.5% dust on rice seedlings, green rice leafhoppers; format: in vivo; details: 1 kg per 10 ares, 24 hours, resistant to organophosphorus and carbamate pesticides
From the text: A 0.5% dust preparation of each of the cis- and trans-isomers and a 50:50 mixture of the cis- and trans-isomers of Compound (1) and of Compound (2) as prepared by the procedure described in Formulation Example-4 was applied to rice seedlings by means of a bell-jar duster at the rate of 1 kg per 10 ares. Then, 30 green rice leafhoppers (Nephotettix cincticeps) resistant to organophosphorus and carbamate pesticides were released. […] In all cases, the mortality was not less than 90%.

[9] = tested on: brown planthoppers (Nilaparvata lugens); assay: Utility Example-7: 0.5% dust on rice seedlings, brown planthoppers; format: in vivo; details: 1 kg per 10 ares, 24 hours
From the text: A 0.5% dust preparation of each of the cis- and trans-isomers and a 50:50 mixture of the cis- and trans-isomers of Compound (1) and of Compound (2) as prepared by the procedure described in Formulation Example-4 was applied to rice seedlings, on which 30 adult brown planthoppers (Nilaparvata lugens) were released, by means of a bell-jar duster at the rate of 1 kg per 10 ares. […] In all cases, the mortality was not less than 90%.

[10] = tested on: houseflies (Musca domestica); assay: Mortality test with houseflies by topical application method; details: 24 h
Protocol: Mortality test with houseflies (Musca domestica) by topical application method
Each of the compounds according to this invention and the control compounds (Table 2) was accurately weighted and a 0.1% solution of each sample in acetone was prepared. Female adult houseflies (Musca domestica) resistant to organophosphorus pesticides, were anesthetized with ether and 0.5 μl or 1.0 μl of the above solution was micropipetted onto the prothoracic dorsal region of each insect. The insects were then put in a high-walled dish together with feed and the dish was covered with a wire-mesh cover and kept at a temperature of 25° C. The test insects were used in groups of 30 individuals each. After 24 hours the insects were examined for deaths and the percent mortality was calculated.

[11] = tested on: green rice leafhoppers (Nephotettix cincticeps Uhler); assay: Mortality test with green rice leafhoppers by topical application method; details: Nephotettix cincticeps, in Oryza sativa, 24 h
Protocol: Mortality test with green rice leafhoppers (Nephotettix cincticeps Uhler) by topical application method
Then, the insects were kept at 25° C. with access to rice plant seedlings. The insects were used in groups of 15 individuals each.

[12] = Fish toxicity test with guppies; format: in vivo, Lebistes reticulatus; details: guppy, water, guppies, 20° C., read-out: TLm (48 hrs.)
Protocol: (§1) Fish toxicity test with guppies (Lebistes reticulatus)
(§2) To 5 liters of water were added 250 mg of Sorpol SM-200 (trademark, Toho Chemical Co., Ltd.) as a surfactant and 2.5 ml of an acetone solution containing one of the test compounds in a predetermined concentration. The mixture was stirred thoroughly to prepare a test water. Ten female guppies (Lebistes reticulatus) of from 3 to 4 months of age were released into the test water which was maintained at 20° C. and the TLm (median tolerance limit, ppm) was determined.

[13] = tested on: guppies (Lebistes reticulatus); assay: Fish toxicity test with guppies; format: in vivo; details: Table 1; 48 hrs.
Protocol: as §1, §2

[14] = Fish toxicity test with carp; format: in vivo, Cyprinus carpio L; details: carp, water, 48 hrs., 21±1° C.; read-out: TLm, Carp (48 hrs.)
Protocol: Fish toxicity test with carp (Cyprinus carpio L)
An acetone solution of one of the test compounds as mentioned in Table 10 and Tween-20 (the same surfactant as mentioned hereinbefore) was prepared. To 50 liters of water (30 cm deep) in a glass tank was added the above acetone solution. The mixture was stirred thoroughly to prepare an aqueous solution containing the test compound in a predetermined concentration. This was used as a test water. Five carps (Cyprinus carpio L) with a body weight of about 6 g and a body length of about 6 cm were released into each test water which was maintained at 21±1° C. After 48 hours, the test fish was examined for death. The TLm (median tolerance limit, ppm) was determined. The test water was moderately aerated.

[15] = tested on: carp and water flea; assay: Fish toxicity ranking according to Japanese regulations; set-up: species or system Cyprinus carpio L; Daphnia pulex; details: from TLm for carp and water flea
Protocol: The above ranking with symbols A, B and C were determined according to Japanese regulations relative to application of agricultural chemicals, and these symbols are defined as follows: […]
A: TLm (48 hrs.) value >10 ppm for carp and TLm (3 hrs.) value >0.5 ppm for water flea, wherein toxicity to fishes is not observed by usual application.
B: TLm (48 hrs.) value 10-0.5 ppm for carp; or TLm (48 hrs.) value >10 ppm for carp and TLm (3 hrs.) value <0.5 ppm for water flea, wherein appreciable toxicity to fishes is not observed by usual application but may be observed when applied to wide area at one time.
C: TLm (48 hrs.) value <0.5 ppm for carp, wherein toxicity to fishes is so strongly observed by usual application that both the application method and application area are strictly restricted.

[16] = Acute toxicity test in rat by the oral route; format: in vivo; details: in vivo, male rat, in olive oil, after 7 days
From the text: Acute toxicity test in rat by the oral route

[17] = tested on: brown planthoppers (Nilaparvata lugens Stal); assay: Utility Example-1: LC50 on adult brown planthoppers on dipped rice plants; format: in vivo; details: Nilaparvata lugens, 24 h, 25° C., read-out: Pesticidal activity LC50
Protocol: A 1% emulsifiable concentrate of each test compound as prepared by the procedure described in Formulation Example 2 was diluted with water to prepare a test solution of predetermined concentration.
Rice plants, 4 weeks after sowing (cultivated in a pot 6 cm in diameter, 7 seedlings) were dipped in the above solution and after allowing them to dry in the air, the pot was covered with a wire-mesh cage. Then, 30 adult brown planthoppers (Nilaparvata lugens Stal) were released into the cage and the pot was kept in a constant-temperature chamber at 25° C.

[18] = Fish toxicity safety factor (TLm divided by maximum concentration in cover water); set-up: species or system carp; details: in vivo, TLm / maximum concentration in cover water at LC50 application (100 l per 10 ares, 5 cm depth)
Protocol: To further confirm the low toxicity to fish and high pesticidal activity of Compounds (1) and (2) according to this invention as evidenced by the fish toxicity tests with carps and the above tests, fish toxicity safety factors were calculated from the fish toxicity and pesticidal test data. These fish toxicity safety factors are indicators of safety to fish inhabiting a paddy field to which Compounds (1) and (2) may be actually applied for pest control purposes.
It is first assumed that such a pesticidal solution would normally be applied at the rate of 100 l per 10 ares of paddy field. It is also assumed that a solution (100 l) corresponding to the LC50 of the compounds would be applied to 10 ares of a paddy field carrying a cover water with a depth of 5 cm above ground surface and that all the solution would then find its way into the cover water. The expected maximum concentration of the compound in the cover water is then calculated. The fish toxicity safety factor of a pesticidal compound is defined as the value obtained by dividing the TLm (ppm) of the particular compound by the maximum concentration of the compound in cover water. The meaning of the value of the fish toxicity safety factor being one (1) is that the maximum concentration of the particular compound in cover water corresponds to the TLm of said compound. It is understood that when the pesticidal compound having a fish toxicity safety factor value of less than one (1) is applied to a paddy field, it has a risk of destroying the fish inhabiting there, and that the higher the safety factor value, the higher is the safety of the compound to fish.
This fish toxicity safety factor will now be explained in further detailed by taking the trans-isomer of Compound (2) of this invention as an example.
On the other hand, the toxicity to fish of this compound is TLm >10 ppm. Therefore, by dividing the TLm (i.e. >10 ppm) by the above cover water maximum concentration (i.e. 0.36 ppm), we obtain a fish toxicity safety factor of >28. Thus, the concentration of the trans-isomerof Compound (2) which kills 50% of pests corresponds to less than 1/28 of the concentration of the same isomer which kills 50% of fish. In other words, this means that the trans-isomer of Compound (2) is extremely safe to fish.

CC1(C)[C@H](C=C(Cl)Cl)[C@@H]1C(=O)OCc1cccc(Oc2ccc(Cl)cc2)c1 (relative stereo) [Compound (1) cis-, 3-(4-chlorophenoxy)benzyl cis-2,2-dimethyl-3-(2,2-dichlorovinyl)cyclopropanecarboxylate]
mortality at 1 µg/larva [1]: 100% | mortality at 10 µg/larva [1]: 100% | mortality at 0.0001 mg [2]: 100% | mortality at 200 ppm [3]: 100% | LC50 at 48 h [4]: > 10 µg/mL | mortality at 80 ppm [5]: ≥ 90% | mortality at 80 ppm [6]: ≥ 90% | mortality [7]: not less than 90% | mortality [8]: not less than 90% | mortality [9]: not less than 90% | mortality at 0.5 µg/female [10]: 100% | mortality at 1 µg/female [10]: 100%

CC1(C)C(C=C(Cl)Cl)C1C(=O)OC(C#N)c1cccc(Oc2ccccc2)c1 (stereo not shown) [Compound (C), Cypermethrin]
mortality at 0.01 µg/female [11]: 100% | mortality at 0.1 µg/female [11]: 100% | mortality at 1 µg/female [11]: 100% | mortality at 10 ng ([11]; read-out: Pesticidal effect, green rice leafhopper): 100% | mortality at 1 µg/larva [1]: 95% | mortality at 10 µg/larva [1]: 100% | mortality at 0.001 mg ([1]; read-out: Pesticidal effect, rice stem borer): 95% | mortality at 0.0001 mg ([2]; read-out: Pesticidal effect, tobacco cutworm): 100% | LC50 at 48 h [4]: 0.026 µg/mL (≈ 0.0625 µM) | LC50 at 48 h [12]: < 0.5 µg/mL | Toxicity to fish TLm, guppy [13]: < 0.5 ppm | LC50 at 48 h [14]: 0.0045 µg/mL (≈ 0.0108 µM) | Ranking [15]: C (TLm (48 hrs.) value <0.5 ppm for carp, wherein toxicity to fishes is so strongly observed by usual application that both the application method and application area are strictly restricted.) | LD50 at 168 h [16]: 310 mg/kg | LC50 [17]: 210 µg/mL (≈ 504 µM) | selectivity ratio [18]: 0.01 | mortality at 0.5 µg/female [10]: 100% | mortality at 1 µg/female [10]: 100% | mortality at 0.001 mg ([10]; read-out: Pesticidal effect, housefly): 100%

Reference: patent publication US4389412A, “Substituted cyclopropanecarboxylic acid esters and pesticidal compositions containing the same as active ingredient” (priority 1979, dated 1983)
